Consider 17 molecules from patent publication US8563714B2, “Bridged spiro [2.4] heptane derivatives as ALX receptor and/or FPRL2 agonists” (Actelion Pharmaceuticals Ltd., priority 2009, dated 2013).

One assay deals with T1, human ALX receptor (Homo sapiens, UniProt P25090).
T1 construct: expressed in transfected cells; host or cells: HEK293 (HEK293-hALXR-Gα16)
T1 sequence (P25090 1-351): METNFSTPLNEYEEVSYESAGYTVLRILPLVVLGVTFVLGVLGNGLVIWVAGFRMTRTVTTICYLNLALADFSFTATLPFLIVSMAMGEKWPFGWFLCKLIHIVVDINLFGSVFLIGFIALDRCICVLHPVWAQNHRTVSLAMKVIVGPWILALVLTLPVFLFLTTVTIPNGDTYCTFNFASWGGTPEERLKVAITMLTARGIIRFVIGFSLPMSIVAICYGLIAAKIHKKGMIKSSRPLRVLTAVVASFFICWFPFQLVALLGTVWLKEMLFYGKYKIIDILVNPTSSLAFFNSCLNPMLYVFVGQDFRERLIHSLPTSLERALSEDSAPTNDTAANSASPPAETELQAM
Kind of assay: Intracellular calcium measurements (FLIPR), agonistic activity in HEK293-hALXR-Gα16 cells. In kind it is cell-based. The settings on record: Fluo-4 calcium FLIPR, normalized to WKYMVm 10 nM. In a few lines:
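HEK293 cells expressing hALXR and Gα16 were loaded with 1 μM Fluo-4 AM and 20 mM HEPES for 60 min at 37°C, then exposed to serially diluted compound. FLIPR fluorescence was read at ex 488/em 540 nm. Baseline-subtracted peak responses were normalized to 10 nM WKYMVm.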
In general terms: Calcium assays in cells follow changes in intracellular calcium, usually with a dye or a luminescent sensor.

For the next assay, the target named is T2, human FPRL2 (Homo sapiens, UniProt P25089).
T2 construct: expressed in transfected cells; host or cells: HEK293 (HEK293-hFPRL2-Gα16)
T2 sequence (P25089 1-353): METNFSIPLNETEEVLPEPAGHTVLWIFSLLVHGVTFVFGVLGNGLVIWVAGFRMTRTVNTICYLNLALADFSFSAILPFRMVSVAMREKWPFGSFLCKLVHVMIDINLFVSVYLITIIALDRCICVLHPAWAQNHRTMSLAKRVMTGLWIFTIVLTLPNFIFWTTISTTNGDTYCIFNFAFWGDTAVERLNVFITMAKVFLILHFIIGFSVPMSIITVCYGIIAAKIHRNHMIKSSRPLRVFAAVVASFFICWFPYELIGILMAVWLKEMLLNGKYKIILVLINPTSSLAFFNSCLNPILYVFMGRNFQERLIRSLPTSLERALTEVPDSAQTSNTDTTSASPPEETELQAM
As to the kind of experiment: Intracellular calcium measurements (FLIPR), agonistic activity in HEK293-hFPRL2-Gα16 cells. The note with it: Fluo-4 calcium FLIPR, normalized to GLY14-Humanin 100 nM. In kind it is cell-based. In a few lines: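 Peak values after baseline subtraction are expressed relative to 100 nM Gly14-Humanin; compounds diluted in assay buffer from 10 mM DMSO stocks.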

`NCCNC(=O)[C@H]1[C@H](C(=O)Nc2ccc(Br)cc2)[C@@H]2C=C[C@H]1C21CC1` (racemic) [Example 44, (5R*)—N^5-(4-Bromophenyl)-(6R*)—N^6-(2-amino-ethyl)-(4S*,7R*)-[4,7-ethenylene-spiro[2.4]heptane]-5,6-dicarboxamide]: the concentration for a half-maximal effect (EC50) (as a rule, the midpoint of the concentration-response curve) is 10 nM at human ALX receptor and 4910 nM at human FPRL2.
In the case of `CN(C)CCN(C)C(=O)[C@H]1[C@H](C(=O)Nc2ccc(Br)cc2)[C@@H]2C=C[C@H]1C21CC1` (racemic) [Example 45, (5R*)—N^5-(4-Bromophenyl)-(6R*)—N^6-methyl-N^6-(2-dimethylamino-ethyl)-(4S*,7R*)-[4,7-ethenylene-spiro[2.4]heptane]-5,6-dicarboxamide], the results for the half-maximal effective concentration (EC50) at human ALX receptor and on human FPRL2 were 11 nM and 4160 nM, respectively.
With `CC(C)(C)OC(=O)NCCCCNC(=O)[C@H]1[C@H](C(=O)Nc2ccc(Br)cc2)[C@@H]2C=C[C@H]1C21CC1` (racemic) [Example 46, (5R*)—N^5-(4-Bromophenyl)-(6R*)—N^6-(4-tert-butoxycarbonyl-amino-butyl)-(4S*,7R*)-[4,7-ethenylene-spiro[2.4]heptane]-5,6-dicarboxamide], the 50% effective concentration (EC50) on human ALX receptor turned out to be 11 nM; on human FPRL2, 1600 nM.
For the molecule `CN(CCNC(=O)[C@H]1[C@H](C(=O)Nc2ccc(Br)cc2)[C@@H]2C=C[C@H]1C21CC1)C(=O)OC(C)(C)C` (racemic) [Example 47, (5R*)—N^5-(4-Bromophenyl)-(6R*)—N^6-(2-(methyl-tert-butoxycarbonyl-amino)-ethyl)-(4S*,7R*)-[4,7-ethenylene-spiro[2.4]heptane]-5,6-dicarboxamide], the concentration giving a half-maximal response (EC50) was found to be 12 nM at human ALX receptor and 1170 nM at human FPRL2.
For `O=C(NCCN1CCCC1)[C@H]1[C@H](C(=O)Nc2ccc(Br)cc2)[C@@H]2C=C[C@H]1C21CC1` (racemic) [Example 48, (5R*)—N^5-(4-Bromophenyl)-(6R*)—N^6-(2-pyrrolidin-1-yl-ethyl)-(4S*,7R*)-[4,7-ethenylene-spiro[2.4]heptane]-5,6-dicarboxamide], the EC50 on human ALX receptor amounted to 12 nM; on human FPRL2 it was 1380 nM.
Regarding `O=C(NCCn1cncn1)[C@H]1[C@H](C(=O)Nc2ccc(Br)cc2)[C@@H]2C=C[C@H]1C21CC1` (racemic) [Example 49, (5R*)—N^5-(4-Bromophenyl)-(6R*)—N^6-(2-1H-[1,2,4]-triazol-1-yl-ethyl)-(4S*,7R*)-[4,7-ethenylene-spiro[2.4]heptane]-5,6-dicarboxamide], the results for the EC50 at human ALX receptor and at human FPRL2 were 12 nM and 1510 nM, respectively.
The corresponding values for `O=C(NCc1ccoc1)[C@H]1[C@H](C(=O)Nc2ccc(Br)cc2)[C@@H]2C=C[C@H]1C21CC1` (racemic) [Example 50, (5R*)—N^5-(4-Bromophenyl)-(6R*)—N^6-(furan-3-yl-methyl)-(4S*,7R*)-[4,7-ethenylene-spiro[2.4]heptane]-5,6-dicarboxamide] are 13 nM and 1080 nM.
With `CN(C)CCCCCNC(=O)[C@H]1[C@H](C(=O)Nc2ccc(Br)cc2)[C@@H]2C=C[C@H]1C21CC1` (racemic) [Example 51, (5R*)—N^5-(4-Bromophenyl)-(6R*)—N^6-(5-dimethyl-amino-pentyl)-(4S*,7R*)-[4,7-ethenylene-spiro[2.4]heptane]-5,6-dicarboxamide], the EC50 on human ALX receptor was found to be 8.2 nM; at human FPRL2, 1490 nM.
For the molecule `CN(C)CCCNC(=O)[C@H]1[C@H](C(=O)Nc2ccc(Br)cc2)[C@@H]2C=C[C@H]1C21CC1` (racemic) [Example 52, (5R*)—N^5-(4-Bromophenyl)-(6R*)—N^6-(3-dimethyl-amino-propyl)-(4S*,7R*)-[4,7-ethenylene-spiro[2.4]heptane]-5,6-dicarboxamide], the half-maximal effective concentration (EC50) at human ALX receptor came out at 9.6 nM; at human FPRL2, 6360 nM.
Turning to `COCCCNC(=O)[C@H]1[C@H](C(=O)Nc2ccc(Br)cc2)[C@@H]2C=C[C@H]1C21CC1` (racemic) [Example 53, (5R*)—N^5-(4-Bromophenyl)-(6R*)—N^6-(3-methoxy-propyl)-(4S*,7R*)-[4,7-ethenylene-spiro[2.4]heptane]-5,6-dicarboxamide], the half-maximal effective concentration (EC50) was determined as 16 nM at human ALX receptor and 5030 nM at human FPRL2.
For `O=C(NCCCn1cncn1)[C@H]1[C@H](C(=O)Nc2ccc(Br)cc2)[C@@H]2C=C[C@H]1C21CC1` (racemic) [Example 55, (5R*)—N^5-(4-Bromophenyl)-(6R*)—N^6-(3-1H-[1,2,4]-triazol-1-yl-propyl)-(4S*,7R*)-[4,7-ethenylene-spiro[2.4]heptane]-5,6-dicarboxamide], the EC50 on human ALX receptor was found to be 18 nM; on human FPRL2, 6680 nM.
As to `CC(C)(C)OC(=O)NCCCNC(=O)[C@H]1[C@H](C(=O)Nc2ccc(Br)cc2)[C@@H]2C=C[C@H]1C21CC1` (racemic) [Example 57, (5R*)—N^5-(4-Bromophenyl)-(6R*)—N^6-(3-(N-tert-butoxycarbonyl-amino)-propyl)-(4S*,7R*)-[4,7-ethenylene-spiro[2.4]heptane]-5,6-dicarboxamide], the EC50 on human ALX receptor is 17 nM; on human FPRL2, 1660 nM.
Turning to `CC(C)CCNC(=O)[C@H]1[C@H](C(=O)Nc2ccc(Br)cc2)[C@@H]2C=C[C@H]1C21CC1` (racemic) [Example 58, (5R*)—N^5-(4-Bromophenyl)-(6R*)—N^6-(3-methyl-butyl)-(4S*,7R*)-[4,7-ethenylene-spiro[2.4]heptane]-5,6-dicarboxamide], the 50% effective concentration (EC50) on human ALX receptor is 20 nM; on human FPRL2, 6190 nM.
For the molecule `COC(=O)CCNC(=O)[C@H]1[C@H](C(=O)Nc2ccc(Br)cc2)[C@@H]2C=C[C@H]1C21CC1` (racemic) [Example 60, (5R*)—N^5-(4-Bromophenyl)-(6R*)—N^6-(2-(methoxy-carbonyl)-ethyl)-(4S*,7R*)-[4,7-ethenylene-spiro[2.4]heptane]-5,6-dicarboxamide], the concentration for a half-maximal effect (EC50) at human ALX receptor is 22 nM; at human FPRL2 it was 1480 nM.
As to `NS(=O)(=O)c1ccc(CCNC(=O)[C@H]2[C@H](C(=O)Nc3ccc(Br)cc3)[C@@H]3C=C[C@H]2C32CC2)cc1` (racemic) [Example 61, (5R*)—N^5-(4-Bromophenyl)-(6R*)—N^6-(2-(4-aminosulfonyl-phenyl)-ethyl)-(4S*,7R*)-[4,7-ethenylene-spiro[2.4]heptane]-5,6-dicarboxamide], the EC50 on human ALX receptor came to 23 nM; at human FPRL2, 2270 nM.
Turning to `CCn1nc(CCNC(=O)[C@H]2[C@H](C(=O)Nc3ccc(Br)cc3)[C@@H]3C=C[C@H]2C32CC2)cc1C` (racemic) [Example 62, (5R*)—N^5-(4-Bromophenyl)-(6R*)—N^6-(2-(1-ethyl-5-methyl-1H-pyrazol-3-yl)-ethyl)-(4S*,7R*)-[4,7-ethenylene-spiro[2.4]heptane]-5,6-dicarboxamide], the EC50 at human ALX receptor worked out at 24 nM; at human FPRL2, 363 nM.
The corresponding values for `CCN(CC)CCNC(=O)[C@H]1[C@H](C(=O)Nc2ccc(Br)cc2)[C@@H]2C=C[C@H]1C21CC1` (racemic) [Example 66, (5R*)—N^5-(4-Bromophenyl)-(6R*)—N^6-(2-diethyl-amino-ethyl)-(4S*,7R*)-[4,7-ethenylene-spiro[2.4]heptane]-5,6-dicarboxamide] are 34 nM and 2220 nM.
